In PubChem BioAssay AID1918944 (Molecular Pharmacology Branch, DTP, NCI, 2023):
Several values for one entry are separate records, joined by “and”; a condition that tells them apart may be missing. Equal values may be shown once.

Test system: 786-0 complex spheroid viability
Assay: Anticancer human tumor 786-0 cell line growth inhibition;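 further: spheroids exposed to agents for seven days before readout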
Details: for viability, T/C: stronger effect = lower value
Method in brief: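 Complex spheroids of tumor cells with HUVEC and human MSCs, exposed to iadademstat combined with other agents. Each agent tested in half-log steps from near clinical Cmax (else 10 microM top), DMSO ≤0.25%.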

[1] = curve of first compound, second compound 0.1 µM
[2] = curve of first compound, second compound 0.316 µM
[3] = curve of first compound, second compound 1 µM
[4] = curve of first compound, second compound 3.16 µM
[5] = curve of first compound, second compound 10 µM
[6] = second compound 0.1 µM, first compound 0.00316 µM
[7] = second compound 0.1 µM, first compound 0.01 µM
[8] = second compound 0.1 µM, first compound 0.0316 µM
[9] = second compound 0.1 µM, first compound 0.1 µM
[10] = second compound 0.316 µM, first compound 0.00316 µM
[11] = second compound 0.316 µM, first compound 0.01 µM
[12] = second compound 0.316 µM, first compound 0.0316 µM
[13] = second compound 0.316 µM, first compound 0.1 µM
[14] = second compound 1 µM, first compound 0.00316 µM
[15] = second compound 1 µM, first compound 0.01 µM
[16] = second compound 1 µM, first compound 0.0316 µM
[17] = second compound 1 µM, first compound 0.1 µM
[18] = second compound 3.16 µM, first compound 0.00316 µM
[19] = second compound 3.16 µM, first compound 0.01 µM
[20] = second compound 3.16 µM, first compound 0.0316 µM
[21] = second compound 3.16 µM, first compound 0.1 µM
[22] = second compound 10 µM, first compound 0.00316 µM
[23] = second compound 10 µM, first compound 0.01 µM
[24] = second compound 10 µM, first compound 0.0316 µM
[25] = second compound 10 µM, first compound 0.1 µM

Compound: Cn1ncnc1C1c2n[nH]c(=O)c3cc(F)cc(c23)NC1c1ccc(F)cc1 (configuration not stated) + NC1CCC(NC2CC2c2ccccc2)CC1
- IC50 [1]: > 0.1 µM
- IC50 [2]: > 0.1 µM
- IC50 [3]: > 0.1 µM
- IC50 [4]: > 0.1 µM
- IC50 [5]: > 0.1 µM
- viability, T/C (second compound 0.1 µM, first compound 0.000316 µM): 117%
- viability, T/C (second compound 0.1 µM, first compound 0.001 µM): 114%
- viability, T/C [6]: 117%
- viability, T/C [7]: 113%
- viability, T/C [8]: 109%
- viability, T/C [9]: 109%
- viability, T/C (second compound 0.316 µM, first compound 0.000316 µM): 127%
- viability, T/C (second compound 0.316 µM, first compound 0.001 µM): 118%
- viability, T/C [10]: 121%
- viability, T/C [11]: 117%
- viability, T/C [12]: 115%
- viability, T/C [13]: 113%
- viability, T/C (second compound 1 µM, first compound 0.000316 µM): 109%
- viability, T/C (second compound 1 µM, first compound 0.001 µM): 115%
- viability, T/C [14]: 114%
- viability, T/C [15]: 115%
- viability, T/C [16]: 110%
- viability, T/C [17]: 105%
- viability, T/C (second compound 3.16 µM, first compound 0.000316 µM): 107%
- viability, T/C (second compound 3.16 µM, first compound 0.001 µM): 106%
- viability, T/C [18]: 112%
- viability, T/C [19]: 109%
- viability, T/C [20]: 106%
- viability, T/C [21]: 98.8%
- viability, T/C (second compound 10 µM, first compound 0.000316 µM): 90.5%
- viability, T/C (second compound 10 µM, first compound 0.001 µM): 88.1%
- viability, T/C [22]: 91.5%
- viability, T/C [23]: 89.3%
- viability, T/C [24]: 91.5%
- viability, T/C [25]: 84.1%

Compound: Nc1ccn(C2OC(CO)C(O)C2(F)F)c(=O)n1 (configuration not stated) + NC1CCC(NC2CC2c2ccccc2)CC1
- IC50 [1]: < 0.000949 µM
- IC50 [2]: < 0.000949 µM
- IC50 [3]: < 0.000949 µM
- IC50 [4]: < 0.000949 µM
- IC50 [5]: < 0.000949 µM
- viability, T/C (second compound 0.1 µM, first compound 0.000949 µM): 4.09%
- viability, T/C (second compound 0.1 µM, first compound 0.003 µM): 2.17%
- viability, T/C (second compound 0.1 µM, first compound 0.00949 µM): 2.51%
- viability, T/C (second compound 0.1 µM, first compound 0.03 µM): 5.79%
- viability, T/C (second compound 0.1 µM, first compound 0.0949 µM): 3.38%
- viability, T/C (second compound 0.1 µM, first compound 0.3 µM): 3.63%
- viability, T/C (second compound 0.316 µM, first compound 0.000949 µM): 4.14%
- viability, T/C (second compound 0.316 µM, first compound 0.003 µM): 2.73%
- viability, T/C (second compound 0.316 µM, first compound 0.00949 µM): 2.97%
- viability, T/C (second compound 0.316 µM, first compound 0.03 µM): 3.95%
- viability, T/C (second compound 0.316 µM, first compound 0.0949 µM): 3.04%
- viability, T/C (second compound 0.316 µM, first compound 0.3 µM): 3.93%
- viability, T/C (second compound 1 µM, first compound 0.000949 µM): 4.18%
- viability, T/C (second compound 1 µM, first compound 0.003 µM): 4.49%
- viability, T/C (second compound 1 µM, first compound 0.00949 µM): 3.51%
- viability, T/C (second compound 1 µM, first compound 0.03 µM): 3.28%
- viability, T/C (second compound 1 µM, first compound 0.0949 µM): 5.66%
- viability, T/C (second compound 1 µM, first compound 0.3 µM): 4.13%
- viability, T/C (second compound 3.16 µM, first compound 0.000949 µM): 5.7%
- viability, T/C (second compound 3.16 µM, first compound 0.003 µM): 3.25%
- viability, T/C (second compound 3.16 µM, first compound 0.00949 µM): 3.12%
- viability, T/C (second compound 3.16 µM, first compound 0.03 µM): 3.88%
- viability, T/C (second compound 3.16 µM, first compound 0.0949 µM): 3.97%
- viability, T/C (second compound 3.16 µM, first compound 0.3 µM): 4.18%
- viability, T/C (second compound 10 µM, first compound 0.000949 µM): 4.1%
- viability, T/C (second compound 10 µM, first compound 0.003 µM): 2.62%
- viability, T/C (second compound 10 µM, first compound 0.00949 µM): 3%
- viability, T/C (second compound 10 µM, first compound 0.03 µM): 3.34%
- viability, T/C (second compound 10 µM, first compound 0.0949 µM): 2.68%
- viability, T/C (second compound 10 µM, first compound 0.3 µM): 3.7%

Compound: COc1cc(Nc2ncc3c(n2)-c2ccc(Cl)cc2C(c2c(F)cccc2OC)=NC3)ccc1C(=O)O
- viability, T/C (compound 0.00316 µM): 109% and 97.4%
- viability, T/C (compound 0.01 µM): 90.9% and 98.9%
- viability, T/C (compound 0.0316 µM): 67.5% and 84.2%
- viability, T/C (compound 0.1 µM): 66.5% and 68.7%
- viability, T/C (compound 0.316 µM): 54.4% and 56%
- viability, T/C (compound 1 µM): 37.1% and 44.9%
- IC50 (curve of compound): 0.329 µM and 0.565 µM

Compound: Nc1ncn(C2CC(O)C(CO)O2)c(=O)n1 (configuration not stated) + NC1CCC(NC2CC2c2ccccc2)CC1
- IC50 [1]: > 1 µM
- IC50 [2]: > 1 µM
- IC50 [3]: > 1 µM
- IC50 [4]: > 1 µM
- IC50 [5]: 0.628 µM
- viability, T/C [6]: 115%
- viability, T/C [7]: 117%
- viability, T/C [8]: 97.1%
- viability, T/C [9]: 82.6%
- viability, T/C (second compound 0.1 µM, first compound 0.316 µM): 72.8%
- viability, T/C (second compound 0.1 µM, first compound 1 µM): 56%
- viability, T/C [10]: 127%
- viability, T/C [11]: 108%
- viability, T/C [12]: 95.3%
- viability, T/C [13]: 92.2%
- viability, T/C (second compound 0.316 µM, first compound 0.316 µM): 71.4%
- viability, T/C (second compound 0.316 µM, first compound 1 µM): 63.1%
- viability, T/C [14]: 118%
- viability, T/C [15]: 99%
- viability, T/C [16]: 96.7%
- viability, T/C [17]: 82.5%
- viability, T/C (second compound 1 µM, first compound 0.316 µM): 70.1%
- viability, T/C (second compound 1 µM, first compound 1 µM): 59%
- viability, T/C [18]: 103%
- viability, T/C [19]: 117%
- viability, T/C [20]: 82.8%
- viability, T/C [21]: 82%
- viability, T/C (second compound 3.16 µM, first compound 0.316 µM): 65.2%
- viability, T/C (second compound 3.16 µM, first compound 1 µM): 52.6%
- viability, T/C [22]: 79.2%
- viability, T/C [23]: 80.2%
- viability, T/C [24]: 82.6%
- viability, T/C [25]: 69.6%
- viability, T/C (second compound 10 µM, first compound 0.316 µM): 58.5%
- viability, T/C (second compound 10 µM, first compound 1 µM): 44.6%
